Source: a melting point compilation (Tetko et al.; mined from patent text by program, amines drawn as free bases though some values may be those of a salt)

| SMILES | melting point [°C] |
| --- | --- |
| Cc1nnc(-c2ccc3occ(-c4ccc(OCS(C)(=O)=O)cc4)c3c2)o1 | 198 to 199 |
| CNC(=O)c1cccc(NC(=O)Cc2cccc(Br)c2)c1 | 176 to 178 |
| CC(=O)c1cc(Cl)ccc1Nc1ccc(OCc2ccccc2)cc1 | 74 to 75 |
| CCCCC(=Nc1sc(Cl)cc1C(=O)NCCC)OC | 110 to 112 |
| OCC1COC(c2c(F)cccc2F)=N1 (stereo unspecified) | 82 |
| CC1(c2ccc3noc(-c4ccccc4)c3c2)OCCO1 | 69 to 71 |
| CN(C)c1ccc(O)c(CNCCc2ccc(N=C(N)c3cccs3)cc2)c1 | 182 to 183 |
| Fc1ccc(CNc2nc(OCc3ccccc3)nc(OCc3ccccc3)n2)cc1 | 157 to 159 |
| CCCN(CCC)C1Cc2cc3c(cc2C1)C(=O)N(Cc1ccc(S(N)(=O)=O)cc1)C3=O | 190 to 194 |
| COc1cc(C)c(C(=O)c2c(Cl)cccc2Cl)cc1Oc1ccccc1 | 89 |
| NP(N)(=S)N1CCCC1 | 95 to 99 |
| O=c1[nH]c2cc(Cl)c(-n3cccc3)cc2cc1P(=O)(O)O | 195 to 200 |
| O=C(C=Cc1ccncc1)c1cccs1 | 150 to 152 |
| Cc1c(C(=O)Nc2ccc(N3CCC(N4CCOCC4)CC3)c(Br)c2)cnn1-c1ccc(C(F)(F)F)cc1 | 220 to 230 |
| CC(=O)Nc1nc2ccc(O)cc2n1S(=O)(=O)N(C)C | 175 to 176 |
| COc1ccccc1-c1ccc2cnc(Nc3cc4c(cc3F)CCC(=O)N4)nn12 | 300 to 305 |
| COc1ccc2ncn(C3CCN(C(C)c4ccccc4)CC3)c(=O)c2c1 (stereo unspecified) | 124 |
| COc1ccc(S(=O)(=O)N2CCn3c(c(C(N)=O)c(Cl)c3-c3ccccc3)C2)cc1 | 194 to 195 |
| COc1cc(C=Cc2conc2C)cc(Br)c1O | 178 to 180 |
| Cc1ccc(C(=O)[C@@H]2[C@@H](C)CCCC2(C)C)cc1Cl | 59 to 60 |
| CCOC(=O)c1cnn2c1c(O)nc1ccccc12 | 249 to 251 |
| Cc1cc2cccc(OS(=O)(=O)C(F)(F)F)c2nc1-c1ccccc1 | 85 |
| COCn1c(-c2ccncc2)c(C)c(CO)c1-c1ccncc1 | 181 to 183 |
| O=C(O)C1(c2ccc(Nc3nc(N4CCCC4)nc4c3CCC4)cc2)CCC1 | 245 to 247 |

| SMILES | melting point [°C] |
| --- | --- |
| Cn1c(=O)c(Oc2ccc(F)cc2F)cc2cnc(S(C)(=O)=O)nc21 | 177 to 178 |
| CC(C)C(=O)Nc1ccoc1 | 120 |
| Nc1nc(N)nc(C2CCN(Cc3ccccc3)CC2)n1 | > 260 |
| CCCNC(=O)c1ccc(C)c(-c2nc(NCCN(C)C(=O)OC(C)(C)C)nc3c2ccc(=O)n3-c2c(F)cccc2F)c1 | 115 to 118 |
| Cc1ccc(S(=O)(=O)NC(=O)C2C(=O)CC(CC(C)C)CC2=O)cc1 (stereo unspecified) | 128 to 130 |
| CC(C)(C)c1cc(CCC(=O)O)cc2c1OC(=O)C2 | 167 to 169 |
| CN(C)S(=O)(=O)c1cc([N+](=O)[O-])ccc1C(=O)O | 160 to 163 |
| CCN(CC)CC=CC(=O)Nc1cc2c(Nc3ccc(F)c(Cl)c3)ncnc2cc1OC1CCC1 | 111 |
| Nc1cc2oc(=O)[nH]c2cc1[N+](=O)[O-] | 198 |
| CC(C)(C)c1cc(Cl)c2c(c1)C=NS(=O)(=O)O2 | 127 to 130 |
| C=CCOc1cccc(-n2cnc(-c3nc(CC)no3)c2)c1 | 73 to 74 |
| CCn1cc(-c2ccccc2)c(=O)c(-c2ccccc2)c1 | 171 |
| O=C(O)c1cccc(-c2cccc(CC(=O)N(Cc3ccccc3)C3c4ccccc4CCC3Cc3ccccc3)c2)c1 (stereo unspecified) | 171 to 172 |
| CS(=O)(=O)c1cc(C(F)(F)F)ns1 | 93 to 94 |
| CC(CSC(=O)C(C)(C)C)C(=O)N1C(C(=O)O)CC2CCCCC21 (stereo unspecified) | 134 to 136 |
| CCOC(=O)Cc1c(C(=O)OCC)c(C)cn1C | 71 to 72 |
| CCCc1nc2c(N)nc(C)c(C)c2n1CCCCN(O)C(C)=O | 164 to 166 |
| COc1ccc(Cn2c(=O)c3ccccc3n(CCCCCCl)c2=O)cc1 | 110 to 111 |
| CCCC(=O)c1cnc2ccc(O)cc2c1Nc1ccc(O)cc1C | 242 to 244 |
| COC(=O)C(Oc1ccc(CCCCCCCl)cc1)c1ccc(Sc2ccc(Cl)cc2)cc1 (stereo unspecified) | 122 to 124 |
| CCOC(=O)c1c2n(c3cc(N4CCN(CC(C)=O)CC4)c(F)cc3c1=O)CS2 | 170 to 172 |
| CCCCCCCCOc1ccc(-c2cnc(-c3ccc(OCc4ccccc4)c(F)c3F)nc2)cn1 | 120 |
| O=C(NCCCl)NOCc1ccccc1 | 67 to 68 |
| O=C(Nc1ccc2[nH]c(=O)sc2c1)C(=O)N1CCC(Cc2ccccc2)CC1 | 201 to 203 |

| SMILES | melting point [°C] |
| --- | --- |
| O=C(O)C(=O)c1ccc(OCCOc2ccc(Cl)cc2)cc1 | 121 to 122 |
| CCOC(=O)C1(C)Oc2c(OC)cccc2C1=O (stereo unspecified) | 81 to 82 |
| C=CCOc1ccc(Br)cc1C(C)=NO | 110 to 111 |
| Oc1ncc(-c2ccccc2)cn1 | 239 to 241 |
| CC#CN(NC(=O)c1ccc(Cl)c(S(N)(=O)=O)c1)c1ccccc1 | 168 to 170 |
| COc1ccc2c(c1)C(=O)N(c1cnc3c(ccn3C)c1)C2 | 198 to 199 |
| O=C(Nc1cccc2c1C(=O)c1c-2n[nH]c1-c1ccc(C(=O)N2CCC[C@H]2CO)s1)NN1CCOCC1 | 267 to 268 |
| OC1CSC(Oc2cncc(-c3cccnc3)c2)C(O)C1O (stereo unspecified) | 203 |
| CCC(=O)N(CC)c1cccc(-c2ccc3nnc(N)n3n2)c1 | 199 to 200 |
| COC(=O)C(=C(C)NCC(O)CO)c1ncc([N+](=O)[O-])cc1[N+](=O)[O-] (stereo unspecified) | 128 to 129 |
| CC1NC(=O)NN=C1c1ccc(N2CCCC2=O)cc1 (stereo unspecified) | 278 to 280 |
| Cc1nc(-c2ccc(-c3cscn3)c(C)c2)c(-c2ccc(S(C)(=O)=O)c(F)c2)o1 | 177 to 178 |
| CCOC(=O)N=C(NCCCc1c[nH]cn1)NCCC(c1ccccc1)c1ccccc1 | 125 to 126 |
| CCCCCCCCCCCCCCCCCCN(CCCCCCCCCCCCCCCCCC)c1ccc(C=Cc2ccc(S(C)(=O)=O)cc2)cc1 | 75 to 76 |
| CCCCOc1nc(N)c2[nH]c(=O)n(CCCCNS(=O)(=O)c3ccc(CCC(=O)OC)cc3)c2n1 | 150 to 152 |
| O=C(Nc1ccc2cccnc2c1)c1cc2cc(F)ccc2n1Cc1cccc(F)c1 | 222 to 223 |
| CCCNC(=O)C(C)Cc1ccc2c(c1)c(Cc1ccc(C(=O)NS(=O)(=O)c3ccccc3C)cc1OC)cn2CC(=O)N(C)C (stereo unspecified) | 109 to 124 |
| CS(=O)CC(=O)c1cc(-c2ccccc2)on1 (stereo unspecified) | 164 to 166 |
| COc1cc2c(cc1O)CCC1C2CCC2(C)C1CCC21OCCO1 (stereo unspecified) | 150 to 151 |
| CN1CCN(c2ccc(N/C=C3\C(=O)NC(=O)c4ccc(C#Cc5ccccc5)cc43)cc2)CC1 | 169 to 170 |
| CC(C)OC(=O)c1nn(-c2ccc(Cl)cc2)c(=O)c2c(N)scc12 | 118 to 120 |
| CS(=O)CCNC(=O)c1cccc(-c2cccc(Oc3cc(Cl)cc(Cl)c3)n2)c1 (stereo unspecified) | 158 to 159 |
| CC(C)C(c1cncnc1C=NO)N(C)C(=O)Cc1ccccc1 (stereo unspecified) | 171 to 172 |
